In patent publication EP1734031A1, “NOVEL 2-(ALPHA-N-PENTANONYL)BENZOETES, THEIR PREPARATION AND USE” (priority 2004, dated 2005):
Marks after values point to notes of the source that are not given here.

What was measured:
[1] = system: model rats of middle cerebral artery thrombosis (MCAT); test: Effects on cerebral infarct area of MCAT rats (TTC staining); type: in vivo, SD rats; conditions: for Cerebral infarct tissue weight/total brain weight: 24 hours after operation; for Inhibition (cerebral infarct): vs. model group; for cerebral infarct compared with the model group (in words): 50 mg/kg, P<0.05
[2] = system: model rats of middle cerebral artery thrombosis (MCAT); test: Effects on neural symptoms of MCAT rats (behavioral score); type: in vivo, SD rats; conditions: for Scores 6 hours: 6 hours after operation; for Scores 6 hours / Scores 24 hours: full mark 4; for Scores 24 hours: 24 hours after operation
[3] = Stability to humidity (high humidity test, purity by HPLC); type: physicochemical; conditions: 10 days
in vivo = conditions: both, ICR, mouse, po
[4] = Stability to light (purity by HPLC); conditions: light test, 10 days
Procedure: Tests were conducted for 10 days in accordance with the testing method as described in Pharmacopoeia of P.R. China, 2000 ed., appendix XIX C of part two, "Guideline for testing the stability of medicament: method for testing stability to light". The purity was determined in accordance with the test described in Pharmacopoeia of P.R. China, 2000 ed., appendix VD of part two, by using HPLC method, C18 column, mobile phase of acetonitrile:0.02M sodium dihydrogen phosphate = 40:60, detecting wavelength of 230 nm, flow rate of 1 ml/min.

[5] = system: thrombosis of artery-vein bypass in rats; test: Effects on thrombosis of artery-vein bypass in rats; type: in vivo, SD rats; conditions: for Dry-weight of thrombus / Wet-weight of thrombus: once per day for 3 days; for Inhibition (dry-weight of thrombus) / Inhibition (wet-weight of thrombus): vs. thrombus model group
[6] = Thermal stability (purity by HPLC); conditions: 10 days at 60°C
Procedure: Tests were conducted for 10 days at 60°C in accordance with the testing method as described in Pharmacopoeia of P.R. China, 2000 ed., appendix XIX C of part two, "Guideline for testing the stability of medicament: method for testing thermal stability". The purity was determined in accordance with the test described in Pharmacopoeia of P.R. China, 2000 ed., appendix VD of part two, by using HPLC method, C18 column, mobile phase of acetonitrile:0.02M sodium dihydrogen phosphate = 40:60, detecting wavelength of 230 nm, flow rate of 1 ml/min.

ICR mice = conditions: mouse, in vivo, po, 168 h
[7] = 50 mg/kg by gavage, vs. model group
[8] = 100 mg/kg by gavage, vs. model group
[9] = 200 mg/kg by gavage, vs. model group

SMILES | Cerebral infarct tissue weight/total brain weight ([1]; 50 mg/kg by gavage) | Inhibition (cerebral infarct) ([1]; 50 mg/kg by gavage) | Cerebral infarct tissue weight/total brain weight ([1]; 100 mg/kg by gavage) | Inhibition (cerebral infarct) ([1]; 100 mg/kg by gavage) | Cerebral infarct tissue weight/total brain weight ([1]; 200 mg/kg by gavage) | Inhibition (cerebral infarct) ([1]; 200 mg/kg by gavage) | Scores 6 hours ([2]; 50 mg/kg by gavage) | Scores 24 hours ([2]; 50 mg/kg by gavage) | % inhibition at hour 24 [2, 7] | Scores 6 hours ([2]; 100 mg/kg by gavage) | Scores 24 hours ([2]; 100 mg/kg by gavage) | % inhibition at hour 24 [2, 8] | Scores 6 hours ([2]; 200 mg/kg by gavage) | Scores 24 hours ([2]; 200 mg/kg by gavage) | % inhibition at hour 24 [2, 9] | decomposed product (stability to light) [4] | Dry-weight of thrombus ([5]; 50 mg/kg by gavage) | Wet-weight of thrombus ([5]; 50 mg/kg by gavage) | Inhibition (dry-weight of thrombus) ([5]; 50 mg/kg) | Inhibition (wet-weight of thrombus) ([5]; 50 mg/kg) | also measured
CCCCC(O)c1ccccc1C(=O)[O-].[K+] (stereo not drawn) [Potassium 2-(α-hydroxypentyl)benzoate] | 6.16±2.46% | 16.87% | 5.73±2.20 % | 27.83% | 5.37±2.00 % | 29.43% | 3.50±0.71 | 3.30±0.48 | 9.34% | 3.55±0.52 | 3.00±0.89 | 19.57% | 3.45±0.52 | 2.73±0.79 | 26.81% |  |  |  |  |  | decomposition after absorbing moisture [3]: highly decomposed; LD50 at 7 days (in vivo): 1230 mg/kg
CCCCC(=O)c1ccccc1C(=O)O [Calcium 2-(α-n-pentanonyl)benzoate, calcium 2-(α-n-pentanonyl)benzoate] | 5.01±1.79 % | 32.39% | 5.23±2.04 % | 34.13% | 4.65±2.13 % | 38.90% | 3.18±0.60 | 2.73±0.65**^,s | 25.00% | 3.40±0.52 | 2.90±0.57 | 22.25% | 3.27±0.79 | 2.45±0.82 | 34.32% | no decomposed product | 40.2 ± 18.0 mg | 199.8 ± 30.4 mg | 21.64% | 22.92% | Dry-weight of thrombus ([5]; 100 mg/kg by gavage): 34.2 ± 13.1 mg; Wet-weight of thrombus ([5]; 100 mg/kg by gavage): 189.8 ± 52.3 mg; Inhibition (dry-weight of thrombus) ([5]; 100 mg/kg): 33.33%; Inhibition (wet-weight of thrombus) ([5]; 100 mg/kg): 26.77%; Dry-weight of thrombus ([5]; 200 mg/kg by gavage): 30.4 ± 13.9 mg; Wet-weight of thrombus ([5]; 200 mg/kg by gavage): 163.2 ± 64.4 mg; Inhibition (dry-weight of thrombus) ([5]; 200 mg/kg): 40.74%; Inhibition (wet-weight of thrombus) ([5]; 200 mg/kg): 37.04%; cerebral infarct compared with the model group (in words) [1]: significantly reduced; decomposed product (thermal stability) [6]: no decomposed product; alleviation on neural symptoms at 24 hours after the operation (in words) ([2]; 50 mg/kg, vs. model group, P<0.01 or P<0.05): significantly alleviation; LD50 value (ICR mice): 2683.8 mg/kg
CCCCC(=O)c1ccccc1C(=O)O.CCCCC(=O)c1ccccc1C(=O)O.c1ccc(CNCCNCc2ccccc2)cc1 [2-(α-n-pentanonyl)benzoate of N,N'-dibenzylethylene diamine] | 5.14±2.17 % | 30.63% | 4.68±1.69 % | 41.06% | 4.60±1.26 % | 39.55% | 3.45±0.69 | 2.91±0.70 |  | 3.45±0.52 | 2.36±0.67 |  | 3.27±0.79 | 2.55±0.52 |  | no decomposed product | 39.0 ± 10.8 mg | 207.1 ± 45.3 mg | 23.98% | 20.10% | Dry-weight of thrombus ([5]; 100 mg/kg by gavage): 29.9 ± 13.6 mg; Wet-weight of thrombus ([5]; 100 mg/kg by gavage): 157.9 ± 67.9 mg; Inhibition (dry-weight of thrombus) ([5]; 100 mg/kg): 41.72%; Inhibition (wet-weight of thrombus) ([5]; 100 mg/kg): 39.08%; Dry-weight of thrombus ([5]; 200 mg/kg by gavage): 32.3 ± 12.5 mg; Wet-weight of thrombus ([5]; 200 mg/kg by gavage): 191.7 ± 34.8 mg; Inhibition (dry-weight of thrombus) ([5]; 200 mg/kg): 37.04%; Inhibition (wet-weight of thrombus) ([5]; 200 mg/kg): 26.04%; cerebral infarct compared with the model group (in words) [1]: significantly reduced; decomposed product (thermal stability) [6]: no decomposed product; LD50 value (ICR mice): 3078.8 mg/kg
